Measured values published in paper PMC6271078 (Molecules, 2014).
Where a name gives a salt, the structure may show the parent alone.

What was measured:
Aqueous solubility = format: physicochemical; conditions: for Aqueous Solubility / solubility: water; for Times Increased of Aqueous Solubility (Comp. vs. Rapa): ratio of compound solubility to Rapa solubility

For `CO[C@H]1C[C@@H]2CC[C@@H](C)[C@@](O)(O2)C(=O)C(=O)N2CCCC[C@H]2C(=O)O[C@H]([C@H](C)C[C@@H]2CC[C@@H](O)[C@H](OC)C2)CC(=O)[C@H](C)/C=C(\C)[C@@H](OC(=O)C[n+]2ccccc2)[C@@H](OC)C(=O)[C@H](C)C[C@H](C)/C=C/C=C/C=C/1C` [Compound 10, Rapa-31-ester of 2-(pyridinium-1-yl)acetic Acid], the “Aqueous Solubility” value (Aqueous solubility) was 52600 µg/mL and the solubility (Aqueous solubility) was 62000 µg/mL.
In the case of `CO[C@H]1C[C@@H]2CC[C@@H](C)[C@@](O)(O2)C(=O)C(=O)N2CCCC[C@H]2C(=O)O[C@H]([C@H](C)C[C@@H]2CC[C@@H](OC(=O)C[n+]3ccccc3)[C@H](OC)C2)CC(=O)[C@H](C)/C=C(\C)[C@@H](O)[C@@H](OC)C(=O)[C@H](C)C[C@H](C)/C=C/C=C/C=C/1C` [Compound 3, Rapa-42-ester of 2-(pyridinium-1-yl)acetic Acid], the “Times Increased of Aqueous Solubility (Comp. vs. Rapa)” value (“Times Increased of Aqueous Solubility” below) (Aqueous solubility) is reported as 10 and the solubility (Aqueous solubility) is reported as 25 µg/mL.
For `CO[C@H]1C[C@@H]2CC[C@@H](C)[C@@](O)(O2)C(=O)C(=O)N2CCCC[C@H]2C(=O)O[C@H]([C@H](C)C[C@@H]2CC[C@@H](OC(=O)C[n+]3cccc(C)c3)[C@H](OC)C2)CC(=O)[C@H](C)/C=C(\C)[C@@H](O)[C@@H](OC)C(=O)[C@H](C)C[C@H](C)/C=C/C=C/C=C/1C` [Compound 4, Rapa-42-ester of 2-(3-methylpyridinium-1-yl)acetic Acid], the “Times Increased of Aqueous Solubility” value (Aqueous solubility) was 2577 and the solubility (Aqueous solubility) was 6700 µg/mL.
Compound `CO[C@H]1C[C@@H]2CC[C@@H](C)[C@@](O)(O2)C(=O)C(=O)N2CCCC[C@H]2C(=O)O[C@H]([C@H](C)C[C@@H]2CC[C@@H](O)[C@H](OC)C2)CC(=O)[C@H](C)/C=C(\C)[C@@H](OC(=O)C[n+]2ccc(C)cc2)[C@@H](OC)C(=O)[C@H](C)C[C@H](C)/C=C/C=C/C=C/1C` (as salt: ammonium) [Compound 11, Rapa-31-ester of 2-(4-methylpyridinium-1-yl)acetic Acid] has a melting point of 145 to 148 °C.
Compound `CO[C@H]1C[C@@H]2CC[C@@H](C)[C@@](O)(O2)C(=O)C(=O)N2CCCC[C@H]2C(=O)O[C@H]([C@H](C)C[C@@H]2CC[C@@H](OC(=O)C[n+]3cscc3C)[C@H](OC)C2)CC(=O)[C@H](C)/C=C(\C)[C@@H](O)[C@@H](OC)C(=O)[C@H](C)C[C@H](C)/C=C/C=C/C=C/1C` (as salt: ammonium) [Compound 2, Rapa-42-ester of 2-(4-methylthiazolium-3-yl)acetic Acid] has a melting point of 130 to 133 °C.
With `CO[C@H]1C[C@@H]2CC[C@@H](C)[C@@](O)(O2)C(=O)C(=O)N2CCCC[C@H]2C(=O)O[C@H]([C@H](C)C[C@@H]2CC[C@@H](O)[C@H](OC)C2)CC(=O)[C@H](C)/C=C(\C)[C@@H](OC(=O)C[n+]2ccc(C)cc2)[C@@H](OC)C(=O)[C@H](C)C[C@H](C)/C=C/C=C/C=C/1C` [Compound 11, Rapa-31-ester of 2-(4-methylpyridinium-1-yl)acetic Acid] the “Aqueous Solubility” value (Aqueous solubility) was 62500 µg/mL and the solubility (Aqueous solubility) was 62000 µg/mL.
For `CO[C@H]1C[C@@H]2CC[C@@H](C)[C@@](O)(O2)C(=O)C(=O)N2CCCC[C@H]2C(=O)O[C@H]([C@H](C)C[C@@H]2CC[C@@H](OC(=O)C[n+]3cccc(O)c3)[C@H](OC)C2)CC(=O)[C@H](C)/C=C(\C)[C@@H](O)[C@@H](OC)C(=O)[C@H](C)C[C@H](C)/C=C/C=C/C=C/1C` [Compound 5, Rapa-42-ester of 2-(3-hydroxypyridinium-1-yl)acetic Acid], the “Times Increased of Aqueous Solubility” value (Aqueous solubility) was 4 and the solubility (Aqueous solubility) was 10 µg/mL.
With `CO[C@H]1C[C@@H]2CC[C@@H](C)[C@@](O)(O2)C(=O)C(=O)N2CCCC[C@H]2C(=O)O[C@H]([C@H](C)C[C@@H]2CC[C@@H](OC(=O)C[n+]3cccc(O)c3)[C@H](OC)C2)CC(=O)[C@H](C)/C=C(\C)[C@@H](O)[C@@H](OC)C(=O)[C@H](C)C[C@H](C)/C=C/C=C/C=C/1C` (as salt: ammonium) [Compound 5, Rapa-42-ester of 2-(3-hydroxypyridinium-1-yl)acetic Acid] the melting point was 146 to 148 °C.
With `CO[C@H]1C[C@@H]2CC[C@@H](C)[C@@](O)(O2)C(=O)C(=O)N2CCCC[C@H]2C(=O)O[C@H]([C@H](C)C[C@@H]2CC[C@@H](OC(=O)C[n+]3ccccc3)[C@H](OC)C2)CC(=O)[C@H](C)/C=C(\C)[C@@H](O)[C@@H](OC)C(=O)[C@H](C)C[C@H](C)/C=C/C=C/C=C/1C` (as salt: ammonium) [Compound 3, Rapa-42-ester of 2-(pyridinium-1-yl)acetic Acid] the melting point was 135 to 137 °C.
In the case of `CO[C@H]1C[C@@H]2CC[C@@H](C)[C@@](O)(O2)C(=O)C(=O)N2CCCC[C@H]2C(=O)O[C@H]([C@H](C)C[C@@H]2CC[C@@H](O)[C@H](OC)C2)CC(=O)[C@H](C)/C=C(\C)[C@@H](OC(=O)C[n+]2cccc(C)c2)[C@@H](OC)C(=O)[C@H](C)C[C@H](C)/C=C/C=C/C=C/1C` [Compound 9, Rapa-31-ester of 2-(3-methylpyridinium-1-yl)acetic Acid], the “Times Increased of Aqueous Solubility” value (Aqueous solubility) is reported as 10269 and the solubility (Aqueous solubility) is reported as 26700 µg/mL.
`CO[C@H]1C[C@@H]2CC[C@@H](C)[C@@](O)(O2)C(=O)C(=O)N2CCCC[C@H]2C(=O)O[C@H]([C@H](C)C[C@@H]2CC[C@@H](O)[C@H](OC)C2)CC(=O)[C@H](C)/C=C(\C)[C@@H](OC(=O)C[n+]2cscc2C)[C@@H](OC)C(=O)[C@H](C)C[C@H](C)/C=C/C=C/C=C/1C` (as salt: ammonium) [Compound 8, Rapa-31-ester of 2-(4-methylthiazolium-3-yl)acetic Acid] gave a melting point of 130 to 132 °C.
Work on `CO[C@H]1C[C@@H]2CC[C@@H](C)[C@@](O)(O2)C(=O)C(=O)N2CCCC[C@H]2C(=O)O[C@H]([C@H](C)C[C@@H]2CC[C@@H](OC(=O)C[n+]3cccc(C)c3)[C@H](OC)C2)CC(=O)[C@H](C)/C=C(\C)[C@@H](O)[C@@H](OC)C(=O)[C@H](C)C[C@H](C)/C=C/C=C/C=C/1C` (as salt: ammonium) [Compound 4, Rapa-42-ester of 2-(3-methylpyridinium-1-yl)acetic Acid] yielded a melting point of 138 to 140 °C.
For `CO[C@H]1C[C@@H]2CC[C@@H](C)[C@@](O)(O2)C(=O)C(=O)N2CCCC[C@H]2C(=O)O[C@H]([C@H](C)C[C@@H]2CC[C@@H](O)[C@H](OC)C2)CC(=O)[C@H](C)/C=C(\C)[C@@H](OC(=O)C[n+]2cscc2C)[C@@H](OC)C(=O)[C@H](C)C[C@H](C)/C=C/C=C/C=C/1C` [Compound 8, Rapa-31-ester of 2-(4-methylthiazolium-3-yl)acetic Acid], the “Times Increased of Aqueous Solubility” value (Aqueous solubility) was 3846 and the solubility (Aqueous solubility) was 10000 µg/mL.
Compound `CO[C@H]1C[C@@H]2CC[C@@H](C)[C@@](O)(O2)C(=O)C(=O)N2CCCC[C@H]2C(=O)O[C@H]([C@H](C)C[C@@H]2CC[C@@H](OC(=O)C[n+]3ccc(C)cc3)[C@H](OC)C2)CC(=O)[C@H](C)/C=C(\C)[C@@H](O)[C@@H](OC)C(=O)[C@H](C)C[C@H](C)/C=C/C=C/C=C/1C` (as salt: ammonium) [Compound 6, Rapa-42-ester of 2-(4-methylpyridinium-1-yl)acetic Acid] has a melting point of 157 to 160 °C.
With `CO[C@H]1C[C@@H]2CC[C@@H](C)[C@@](O)(O2)C(=O)C(=O)N2CCCC[C@H]2C(=O)O[C@H]([C@H](C)C[C@@H]2CC[C@@H](OC(=O)C[n+]3csc(C)c3C)[C@H](OC)C2)CC(=O)[C@H](C)/C=C(\C)[C@@H](O)[C@@H](OC)C(=O)[C@H](C)C[C@H](C)/C=C/C=C/C=C/1C` [Compound 1, Rapa-42-ester of 2-(4,5-dimethylthiazolium-3-yl)acetic Acid] the “Times Increased of Aqueous Solubility” value (Aqueous solubility) was 1615 and the solubility (Aqueous solubility) was 4200 µg/mL.
For `CO[C@H]1C[C@@H]2CC[C@@H](C)[C@@](O)(O2)C(=O)C(=O)N2CCCC[C@H]2C(=O)O[C@H]([C@H](C)C[C@@H]2CC[C@@H](OC(=O)C[n+]3ccc(C)cc3)[C@H](OC)C2)CC(=O)[C@H](C)/C=C(\C)[C@@H](O)[C@@H](OC)C(=O)[C@H](C)C[C@H](C)/C=C/C=C/C=C/1C` [Compound 6, Rapa-42-ester of 2-(4-methylpyridinium-1-yl)acetic Acid], the “Times Increased of Aqueous Solubility” value (Aqueous solubility) was 2308 and the solubility (Aqueous solubility) was 6000 µg/mL.
For `CO[C@H]1C[C@@H]2CC[C@@H](C)[C@@](O)(O2)C(=O)C(=O)N2CCCC[C@H]2C(=O)O[C@H]([C@H](C)C[C@@H]2CC[C@@H](OC(=O)C[n+]3cscc3C)[C@H](OC)C2)CC(=O)[C@H](C)/C=C(\C)[C@@H](O)[C@@H](OC)C(=O)[C@H](C)C[C@H](C)/C=C/C=C/C=C/1C` [Compound 2, Rapa-42-ester of 2-(4-methylthiazolium-3-yl)acetic Acid], the “Times Increased of Aqueous Solubility” value (Aqueous solubility) was 11 and the solubility (Aqueous solubility) was 28 µg/mL.
Compound `CO[C@H]1C[C@@H]2CC[C@@H](C)[C@@](O)(O2)C(=O)C(=O)N2CCCC[C@H]2C(=O)O[C@H]([C@H](C)C[C@@H]2CC[C@@H](O)[C@H](OC)C2)CC(=O)[C@H](C)/C=C(\C)[C@@H](OC(=O)C[n+]2ccccc2)[C@@H](OC)C(=O)[C@H](C)C[C@H](C)/C=C/C=C/C=C/1C` (as salt: ammonium) [Compound 10, Rapa-31-ester of 2-(pyridinium-1-yl)acetic Acid] has a melting point of 140 to 142 °C.
In the case of `CO[C@H]1C[C@@H]2CC[C@@H](C)[C@@](O)(O2)C(=O)C(=O)N2CCCC[C@H]2C(=O)O[C@H]([C@H](C)C[C@@H]2CC[C@@H](O)[C@H](OC)C2)CC(=O)[C@H](C)/C=C(\C)[C@@H](OC(=O)C[n+]2csc(C)c2C)[C@@H](OC)C(=O)[C@H](C)C[C@H](C)/C=C/C=C/C=C/1C` [Compound 7, Rapa-31-ester of 2-(4,5-dimethylthiazolium-3-yl)acetic Acid], the “Times Increased of Aqueous Solubility” value (Aqueous solubility) is reported as 8962 and the solubility (Aqueous solubility) is reported as 23300 µg/mL.
With `CO[C@H]1C[C@@H]2CC[C@@H](C)[C@@](O)(O2)C(=O)C(=O)N2CCCC[C@H]2C(=O)O[C@H]([C@H](C)C[C@@H]2CC[C@@H](O)[C@H](OC)C2)CC(=O)[C@H](C)/C=C(\C)[C@@H](OC(=O)C[n+]2cccc(C)c2)[C@@H](OC)C(=O)[C@H](C)C[C@H](C)/C=C/C=C/C=C/1C` (as salt: ammonium) [Compound 9, Rapa-31-ester of 2-(3-methylpyridinium-1-yl)acetic Acid] the melting point was 138 to 140 °C.
